This passage reports EC50 and inhibition results from patent US10604514B2, “6-(5-membered heteroaryl)isoquinolin-3-yl carboxamides and preparation and use thereof” (Samumed, LLC, priority 2017, dated 2020).

For orientation: EC50 means the concentration that produces a half-maximal response.

Test [1] relates to Wnt activity (Sp5-Luc reporter in SW480 colon carcinoma cells). Nature of the test: Wnt activity screening assay (Sp5-Luc reporter gene assay). It counts as cell-based, human. As to conditions: for EC50: Sp5-Luc reporter, SW480 cells, 36 to 48 hours; for inhibition at 10 µM: SW480, read-out: percent inhibition at 10 μM. Put shortly: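 SW480 cells stably carrying an Sp5 promoter (eight TCF/LEF sites)-firefly luciferase reporter were plated in DMEM with 1% FBS and treated with a 10-point, 1:3 dilution series from 10 μM (0.1% DMSO) for 36 to 48 h at 37° C. Luminescence was normalized to DMSO controls, and EC50 came from four-parameter nonlinear regression.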
(Reporter assays use an easily measured gene product as a stand-in for the process of interest.)

Test [2] addresses GSK3β kinase (Homo sapiens (Human), UniProt P49841). Nature of the test: GSK3β kinase assay (Ser/Thr 09 peptide Z-lyte, FRET).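 Note: Coumarin/fluorescein emission ratio converted to percent phosphorylation against unphosphorylated (0%) and phosphorylated (100%) controls, 1 h compound incubation at room temperature, 11-point threefold dilutions from 10 µM, run in duplicate.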 It counts as biochemical. To be noted: method text calls the value IC50.
Test [3] has as its system Tau phosphorylation at Ser396 (pSer396), SH-SY5Y cells. Nature of the test: Tau phosphorylation at Ser396 (pSer396) in SH-SY5Y cells, ELISA/western blot.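 Note: cell lysates probed for reduced Tau pSer396 via ELISA (colorimetric) or western blot (chemiluminescence), both with one shared pSer396 antibody, EC50 for lowering phosphorylation.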 Format: cell-based, human. To be noted: SH-SY5Y cells, overnight (16-18 h), read-out: pSer396 Tau EC50.
Test [4] deals with SW480 colon carcinoma cells. Nature of the test: Cell viability assay (CellTiter-Glo) in SW480 cells.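 For all read-outs here: SW480 cells stably carrying an Sp5-luciferase TCF/LEF reporter, luminescent ATP signal as viability measure, DMSO-treated cells as control.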 As to conditions: for EC50: cell viability, SW480 cells, four days, CellTiter-Glo; for inhibition at 10 µM: SW480, read-out: percent inhibition at 10 μM. It counts as cell-based, human. On the technique in general: ATP-based viability assays read luminescence as a measure of living cells.

The test system of test [5] is LL29 cells (primary human fibroblasts derived from IPF patients), α-smooth muscle actin. Nature of the test: Inhibition of fibrotic process: αSMA in TGF-β1-treated primary human fibroblasts from IPF patients (LL29 cells). It counts as cell-based. To be noted: for EC50: % αSMA-positive LL29 cells, TGF-β1 20 ng/mL, 4 days; for inhibition at 10 µM: read-out: percent inhibition at 10 μM. The gist of the method:
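IPF-patient lung fibroblasts (LL29) were stimulated with TGF-β1 (20 ng/mL) in 1% FBS medium with compound (11-point 1:2 series, 0.1% DMSO) for 4 days at 37 °C. Fixed cells were immunostained for αSMA and imaged, excluding SYTOX-positive dead cells. The % αSMA-positive cells was normalized to TGF-β1/DMSO control wells.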

The test system of test [6] is IL-6. Nature of the test: IL-6 inhibition in LPS-stimulated human peripheral blood mononuclear cells (HTRF). As to conditions: for EC50: IL-6, LPS-stimulated huPBMCs, HTRF; for inhibition at 10 µM: read-out: percent value in parentheses below EC50 >10. Format: cell-based. Put shortly: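 Fresh human PBMCs (5000 cells/well, 1% FBS RPMI) preincubated with compound (10-point 1:3 series from 10 μM, 0.25% DMSO) 2 h at 37 °C, then stimulated with 50 ng/mL E. coli LPS for 22 h. IL-6 by HTRF 665/620 ratio; DMSO-normalized, EC50 from 4-parameter fit.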
For orientation: Time-resolved FRET reads energy transfer from a long-lived donor to a nearby acceptor.

Test [7] concerns the target DYRK1A kinase (Homo sapiens (Human), UniProt Q13627). Nature of the test: DYRK1A kinase assay (Ser/Thr 18 peptide Z-lyte, FRET).
The mark [8] stands for this setting: DYRK1A kinase, method text calls the value IC50.

Read-outs that look alike come from different tables or passages of the source.

Sequence of GSK3β kinase (P49841 whole entry): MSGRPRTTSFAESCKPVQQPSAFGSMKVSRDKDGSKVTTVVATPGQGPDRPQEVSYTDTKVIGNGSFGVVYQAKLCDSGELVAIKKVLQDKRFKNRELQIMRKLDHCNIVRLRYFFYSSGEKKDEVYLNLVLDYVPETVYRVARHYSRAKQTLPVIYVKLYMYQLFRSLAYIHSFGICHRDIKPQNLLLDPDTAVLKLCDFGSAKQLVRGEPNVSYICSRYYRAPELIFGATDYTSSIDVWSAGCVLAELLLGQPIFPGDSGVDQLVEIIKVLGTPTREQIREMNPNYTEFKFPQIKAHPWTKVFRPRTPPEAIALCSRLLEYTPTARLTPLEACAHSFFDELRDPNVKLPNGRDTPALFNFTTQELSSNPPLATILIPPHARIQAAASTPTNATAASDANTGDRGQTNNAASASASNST

`Cc1nnc(-c2ccc3cnc(NC(=O)N4CCn5ccnc5C4)cc3c2)s1` [Compound 125, N-(6-(5-Methyl-1,3,4-thiadiazol-2-yl)isoquinolin-3-yl)-5,6-dihydroimidazo [1,2-a]pyrazine-7(8H)-carboxamide]: the EC50 in test [1] (Homo sapiens) amounted to 1240 nM; in test [2], 5 nM; in test [3] (Homo sapiens), 114 nM; in test [4] (Homo sapiens, 96 h), 1660 nM; in test [5] (Homo sapiens, Fibroblast, 96 h) it was 442 nM; in test [6] (Homo sapiens, PBMC) it was 9270 nM. This compound also had an EC50 in test [7] (setting [8]) of 4 nM.

Take `Cc1nnc(-c2ccc3cnc(NC(=O)N4CCC(NCCF)CC4)cc3c2)s1` [Compound 156, 4-((2-Fluoroethyl)amino)-N-(6-(5-methyl-1,3,4-thiadiazol-2-yl)isoquinolin-3-yl)piperidine-1-carboxamide]: the EC50 is 2840 nM in test [1] (Homo sapiens); 34 nM in test [2]; 615 nM in test [3] (Homo sapiens); 2550 nM in test [4] (Homo sapiens, 96 h); 2380 nM in test [5] (Homo sapiens, Fibroblast, 96 h); over 10000 nM in test [6] (Homo sapiens, PBMC). Besides, in test [7] (setting [8]), the EC50 came to 7 nM. Besides, the inhibition at 10 µM in test [6] (Homo sapiens, PBMC) amounted to 28.8%.

With `Cn1cc(-c2ccc3cnc(NC(=O)[C@H]4CC[C@H](N5CCCC5)CC4)cc3c2)nn1` [Compound 99, trans-N-(6-(1-Methyl-1H-1,2,3-triazol-4-yl)isoquinolin-3-yl)-4-(pyrrolidin-1-yl)cyclohexane-1-carboxamide], the EC50 amounted to 589 nM in test [1] (Homo sapiens); 8 nM in test [2]; 208 nM in test [3] (Homo sapiens); 1080 nM in test [4] (Homo sapiens, 96 h); 72 nM in test [5] (Homo sapiens, Fibroblast, 96 h); 1360 nM in test [6] (Homo sapiens, PBMC). The same compound showed an EC50 in test [7] (setting [8]) of 4 nM.

In the case of `Cc1ncc(-c2ccc3cnc(NC(=O)[C@H]4CC[C@H](CN5CCOCC5)CC4)cc3c2)o1` [Compound 69, trans-N-(6-(2-methyloxazol-5-yl)isoquinolin-3-yl)-4-(morpholinomethyl)cyclohexane-1-carboxamide], the EC50 turned out to be 927 nM in test [1] (Homo sapiens); 70 nM in test [2]; 516 nM in test [3] (Homo sapiens); 1700 nM in test [4] (Homo sapiens, 96 h); 210 nM in test [5] (Homo sapiens, Fibroblast, 96 h); 1020 nM in test [6] (Homo sapiens, PBMC). This compound had an EC50 in test [7] (setting [8]) of 3 nM.

Take `[2H]c1c(NC(=O)CN2CCOCC2)ncc2ccc(-c3cnc(C)o3)cc12` [Compound 137, N-(6-(2-Methyloxazol-5-yl)isoquinolin-3-yl-4-d)-2-morpholinoacetamide]: the inhibition at 10 µM in test [1] (Homo sapiens) amounted to 38.5%; in test [4] (Homo sapiens), 39%. Besides, the EC50 is over 10000 nM in test [1] (Homo sapiens); 68 nM in test [2]; 573 nM in test [3] (Homo sapiens); over 10000 nM in test [4] (Homo sapiens, 96 h); 3130 nM in test [5] (Homo sapiens, Fibroblast, 96 h); 2280 nM in test [6] (Homo sapiens, PBMC). This compound had an EC50 in test [7] of 18 nM.

As for `Cc1nnc(-c2ccc3cnc(NC(=O)N4CCN(C(C)C)CC4)cc3c2)s1` [Compound 146, 4-Isopropyl-N-(6-(5-methyl-1,3,4-thiadiazol-2-yl)isoquinolin-3-yl) piperazine-1-carboxamide], the EC50 is 3110 nM in test [1] (Homo sapiens); 62 nM in test [2]; 1000 nM in test [3] (Homo sapiens); 3840 nM in test [4] (Homo sapiens, 96 h); over 10000 nM in test [5] (Homo sapiens, Fibroblast, 96 h); over 10000 nM in test [6] (Homo sapiens, PBMC). In test [7] (setting [8]), this compound returned an EC50 of 22 nM. In addition, the inhibition at 10 µM in test [5] (Homo sapiens, Fibroblast) came to 35.1%; in test [6] (Homo sapiens, PBMC), 2.1%.

In the case of `Cc1nnc(-c2ccc3cnc(NC(=O)C4(F)CCN(C)CC4)cc3c2)s1` [Compound 26, 4-Fluoro-1-methyl-N-(6-(5-methyl-1,3,4-thiadiazol-2-yl)isoquinolin-3-yl) piperidine-4-carboxamide], the EC50 in test [1] (Homo sapiens) was 6950 nM; in test [2] it was 524 nM; in test [3] (Homo sapiens), 167 nM; in test [4] (Homo sapiens, 96 h), 8530 nM; in test [5] (Homo sapiens, Fibroblast, 96 h) it was over 10000 nM; in test [6] (Homo sapiens, PBMC) it was over 10000 nM. Also, in test [7] (setting [8]), the midpoint of the response, the EC50, lay at 38 nM. The inhibition at 10 µM was 48.4% in test [5] (Homo sapiens, Fibroblast) and 5.6% in test [6] (Homo sapiens, PBMC).

For “trans-N-(6-(2-methyloxazol-5-yl)isoquinolin-3-yl)-4-((propan-2-yl-1,1,1,3,3,3-d6)amino)cyclohexane-1-carboxamide [Compound 141]”, the EC50 came to 2780 nM in test [1]; 50 nM in test [2]; 594 nM in test [3]; 1570 nM in test [4]; 321 nM in test [5]; 388 nM in test [6]. Moreover, in test [7] (setting [8]), a half-maximal response (EC50) required 9 nM.

Take `COCCN[C@H]1CC[C@H](C(=O)Nc2cc3cc(-c4cnn(C)c4)cc(F)c3cn2)CC1` [Compound 105, trans-N-(8-Fluoro-6-(1-methyl-1H-pyrazol-4-yl)isoquinolin-3-yl)-4-((2-methoxyethyl)amino)cyclohexane-1-carboxamide]: the results for the inhibition at 10 µM in test [1] (Homo sapiens) and in test [4] (Homo sapiens) were 15.8% and 16.9%, respectively. In addition, the EC50 in test [1] (Homo sapiens) is over 10000 nM; in test [2] it was 550 nM; in test [3] (Homo sapiens), 2200 nM; in test [4] (Homo sapiens, 96 h), over 10000 nM; in test [5] (Homo sapiens, Fibroblast, 96 h) it was 812 nM; in test [6] (Homo sapiens, PBMC), 1570 nM. The EC50 in test [7] (setting [8]) is 34 nM.

Turning to `[2H]c1c([2H])c([2H])c(C(=O)Nc2cc3cc(-c4cnc(C)n4C)ccc3cn2)c(F)c1[2H]` [Compound 157, N-(6-(1,2-Dimethyl-1H-imidazol-5-yl)isoquinolin-3-yl)-2-fluorobenzamide-3,4,5,6-d4], the EC50 in test [1] (Homo sapiens) is 1730 nM; in test [2], over 10000 nM; in test [3] (Homo sapiens) it was 720 nM; in test [4] (Homo sapiens, 96 h), 2380 nM; in test [5] (Homo sapiens, Fibroblast, 96 h) it was 5790 nM; in test [6] (Homo sapiens, PBMC), over 10000 nM. In addition, the EC50 in test [7] amounted to 19 nM. The inhibition at 10 µM in test [6] (Homo sapiens, PBMC) was determined as 0%.

Consider `Cc1nnc(-c2ccc3cnc(NC(=O)N[C@H]4CCN(C)C[C@@H]4F)cc3c2)s1` [Compound 71, 1-((3S,4S)-3-Fluoro-1-methylpiperidin-4-yl)-3-(6-(5-methyl-1,3,4-thiadiazol-2-yl)isoquinolin-3-yl)urea], for which the inhibition at 10 µM came to 45.6% in test [1] (Homo sapiens) and 46.7% in test [4] (Homo sapiens). Moreover, the EC50 is over 10000 nM in test [1] (Homo sapiens); 14 nM in test [2]; 250 nM in test [3] (Homo sapiens); over 10000 nM in test [4] (Homo sapiens, 96 h); 4660 nM in test [5] (Homo sapiens, Fibroblast, 96 h); 9370 nM in test [6] (Homo sapiens, PBMC). The EC50 in test [7] (setting [8]) turned out to be 6 nM.

Take `[2H]C([2H])([2H])Oc1ccc(C(=O)Nc2cc3cc(-c4cncn4C)ccc3cn2)cc1` [Compound 87, 4-(Methoxy-d3)-N-(6-(1-methyl-1H-imidazol-5-yl)isoquinolin-3-yl) benzamide]: the EC50 in test [1] (Homo sapiens) worked out at 214 nM; in test [2], 1450 nM; in test [3] (Homo sapiens), 896 nM; in test [4] (Homo sapiens, 96 h), 489 nM; in test [5] (Homo sapiens, Fibroblast, 96 h), 132 nM; in test [6] (Homo sapiens, PBMC), 1170 nM. This compound came in with an EC50 in test [7] of 3 nM.

For the compound `CNC1CCN(C(=O)Nc2cc3cc(-c4nnc(C)s4)ccc3cn2)CC1` [Compound 30, N-(6-(5-Methyl-1,3,4-thiadiazol-2-yl)isoquinolin-3-yl)-4-(methylamino) piperidine-1-carboxamide], the EC50 in test [1] (Homo sapiens) is 3310 nM; in test [2], 99 nM; in test [3] (Homo sapiens) it was 453 nM; in test [4] (Homo sapiens, 96 h), 6840 nM; in test [5] (Homo sapiens, Fibroblast, 96 h), 4110 nM; in test [6] (Homo sapiens, PBMC), over 10000 nM. The compound also showed an EC50 in test [7] (setting [8]) of 27 nM. In addition, the inhibition at 10 µM in test [6] (Homo sapiens, PBMC) was 9.3%.

For the compound `[2H]C([2H])([2H])c1ccc(C(=O)Nc2cc3cc(-c4cncn4C)ccc3cn2)cc1` [Compound 84, 4-(Methyl-d3)-N-(6-(1-methyl-1H-imidazol-5-yl)isoquinolin-3-yl)benzamide], the inhibition at 10 µM in test [1] (Homo sapiens) worked out at 25.5%. In addition, the EC50 in test [1] (Homo sapiens) was over 10000 nM; in test [2] it was 1050 nM; in test [3] (Homo sapiens) it was 1400 nM; in test [4] (Homo sapiens, 96 h), 494 nM; in test [5] (Homo sapiens, Fibroblast, 96 h), 630 nM; in test [6] (Homo sapiens, PBMC), 1300 nM. In test [7], the EC50 was determined as 2 nM.

As for `Cc1ncc(-c2ccc3cnc(NC(=O)N4CC[C@H](N)[C@@H](F)C4)cc3c2)o1` [Compound 51, (3S,4S)-4-Amino-3-fluoro-N-(6-(2-methyloxazol-5-yl)isoquinolin-3-yl) piperidine-1-carboxamide], the EC50 stood at 36 nM in test [1] (Homo sapiens); 349 nM in test [2]; 656 nM in test [3] (Homo sapiens); 3940 nM in test [4] (Homo sapiens, 96 h); 2490 nM in test [5] (Homo sapiens, Fibroblast, 96 h); 3240 nM in test [6] (Homo sapiens, PBMC). This compound also displayed an EC50 in test [7] (setting [8]) of 14 nM.
